According to patent US12172983B2, “EGFR inhibitors” (Blueprint Medicines Corporation, priority 2019, dated 2024):
Where two headings read alike, the source gives them in different places.

Assays:
EGFR (L858R T790M C797S) = target: T1, EGFR (L858R T790M C797S) (Homo sapiens, UniProt P00533, C797S/L858R/T790M); test: Biochemical EGFR inhibition assay (Caliper mobility shift), EGFR LRTMCS mutant; settings: inhibitory activity against EGFR LRTMCS mutant; apparent IC50; read-out: Ext Enz LRTMCS
T1 construct: purchased SignalChem E10-122VG
T1 sequence (P00533 25-1210 T790M/C797S/L858R): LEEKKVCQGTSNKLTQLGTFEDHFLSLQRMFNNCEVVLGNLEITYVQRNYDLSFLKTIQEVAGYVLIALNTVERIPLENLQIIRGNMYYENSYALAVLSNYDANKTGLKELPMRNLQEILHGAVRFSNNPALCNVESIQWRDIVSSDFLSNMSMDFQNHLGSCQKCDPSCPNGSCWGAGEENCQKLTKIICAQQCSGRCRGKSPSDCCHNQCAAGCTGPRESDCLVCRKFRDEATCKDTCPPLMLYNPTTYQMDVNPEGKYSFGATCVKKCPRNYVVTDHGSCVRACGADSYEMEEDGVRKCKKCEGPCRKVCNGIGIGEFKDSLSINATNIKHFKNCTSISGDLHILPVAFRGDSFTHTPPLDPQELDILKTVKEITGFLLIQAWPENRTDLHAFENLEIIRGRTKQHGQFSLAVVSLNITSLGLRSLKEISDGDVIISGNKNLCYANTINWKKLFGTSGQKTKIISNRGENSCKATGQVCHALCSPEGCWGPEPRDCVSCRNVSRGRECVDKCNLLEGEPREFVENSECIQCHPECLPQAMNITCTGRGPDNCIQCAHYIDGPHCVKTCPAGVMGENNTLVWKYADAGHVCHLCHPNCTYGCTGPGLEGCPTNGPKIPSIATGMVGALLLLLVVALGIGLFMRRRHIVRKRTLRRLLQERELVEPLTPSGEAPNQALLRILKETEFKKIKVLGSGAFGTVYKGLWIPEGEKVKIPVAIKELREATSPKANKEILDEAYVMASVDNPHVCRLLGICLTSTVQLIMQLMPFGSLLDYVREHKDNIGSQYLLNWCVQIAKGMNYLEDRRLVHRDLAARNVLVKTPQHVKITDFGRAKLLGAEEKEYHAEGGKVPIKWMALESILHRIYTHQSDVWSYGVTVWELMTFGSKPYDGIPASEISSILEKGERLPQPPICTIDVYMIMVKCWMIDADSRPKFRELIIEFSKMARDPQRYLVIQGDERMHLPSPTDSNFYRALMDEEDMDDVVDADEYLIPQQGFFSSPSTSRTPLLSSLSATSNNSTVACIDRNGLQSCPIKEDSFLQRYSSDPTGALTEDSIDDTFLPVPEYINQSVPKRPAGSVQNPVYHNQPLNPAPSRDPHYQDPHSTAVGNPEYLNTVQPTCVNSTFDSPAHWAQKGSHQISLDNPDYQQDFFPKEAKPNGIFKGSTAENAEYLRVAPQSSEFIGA
Procedure: Reactions proceeded until between 10% to 20% total peptides were phosphorylated at room temperature (25° C.) and were terminated with 35 mM 2,2′,2″,2′″-(ethane-1,2-diyldinitrilo)tetraacetic acid (EDTA). Product was detected using the Caliper mobility shift detection method where the phosphorylated peptide (product) and substrate were electrophoretically separated and measured. Percent activity was plotted against log concentration of compound and points to generate an apparent IC50.

[1] = test system: phosphorylation of EGFR (Tyr1068) in NCI-H1975 cell line that harbors the EGFR L858R T790M mutations; test: NCI-H1975 pEGFR AlphaLISA assay; format: cell-based; settings: 4-5 hours incubation, read-out: Ext pEGFR H1975
Procedure: Inhibitory effects of the compounds of the disclosure were evaluated in cellular assays that measure level of intracellular phosphorylation of EGFR in NCI-H1975 cell line that harbors the EGFR L858R T790M mutations (ATCC, CRL-5908) using AlphaLISA sureFire ultra p-EGFR (Tyr1068) assay kit (PerkinElmer, ALSU-PEGFR-A50K). The NCI-H1975 cells were seeded at 12.5K/well in 22 μL into 384 well opti plate (PerkinElmer, 6007299) and adhering overnight at 37 C/5% CO2. On the next day, the test compounds and DMSO control were added into H1975 cell plate followed by incubation at 37 C/5% CO2 for 4-5 hours. The cells were then spin down in the 384-well plate and lysed with 10 μL of 1×AlphaLISA lysis buffer followed by shaking at 600 rpm for 10 minutes at room temperature. After that, 5 μL of an acceptor bead mix was added to each well followed by incubation at room temperature for 1.5-2 h in dark. Then 5 μL of a donor bead mix was added to each well followed by overnight incubation at room temperature in dark. On the next day, the plate was read at a compatible plate reader to obtain pEGFR signal. Percent of pEGFR inhibition was plotted against log concentration of compounds to generate IC50 values.

[2] = Homo sapiens, NCI-H1975, inhibition of phosphorylation of mutant EGFR in NCI-H1975 cells
[3] = inhibition of phosphorylation of mutant EGFR in NCI-H1975 cells

| IC50 (EGFR (L858R T790M C797S)) [nM] | IC50 [1, 2] [nM] | IC50 [1, 3] [nM] | Structure (SMILES) |
| --- | --- | --- | --- |
| ≤ 15 | 30.1 to 50 | – | CC(C)c1ccc(N2CC(CS(C)(=O)=O)C2)c2cnc(Nc3ccnc(N4CC5COC(C5)C4)n3)cc12 (racemic) [Compound 13, (rac)-8-[3-(methanesulfonylmethyl)azetidin-1-yl]-N-{2-[6-oxa-3-azabicyclo[3.2.1]octan-3-yl]pyrimidin-4-yl}-5-(propan-2-yl)isoquinolin-3-amine] |
| 20.1 to 30 | 30.1 to 50 | – | CC(C)c1ccc(N2CC(CS(C)(=O)=O)C2)c2cnc(Nc3ccnc(N4CCCC(O)CC4)n3)cc12 (racemic) [Compound 21, (rac)-1-[4-({8-[3-(methanesulfonylmethyl)azetidin-1-yl]-5-(propan-2-yl)isoquinolin-3-yl}amino)pyrimidin-2-yl]azepan-4-ol] |
| 15.1 to 20 | 10.1 to 20 | – | CO[C@@H]1[C@H](F)CN(c2nccc(Nc3cc4c(C(C)C)ccc(N5CC(CS(C)(=O)=O)C5)c4cn3)n2)C[C@@H]1O (racemic) [Compound 146, (3S,4S,5R)-5-fluoro-1-(4-((5-isopropyl-8-(3-((methylsulfonyl)methyl)azetidin-1-yl)isoquinolin-3-yl)amino)pyrimidin-2-yl)-4-methoxypiperidin-3-ol and (3R,4R,5S)-5-fluoro-1-(4-((5-isopropyl-8-(3-((methylsulfonyl)methyl)azetidin-1-yl)isoquinolin-3-yl)amino)pyrimidin-2-yl)-4-methoxypiperidin-3-ol] |
| ≤ 15 | 10.1 to 20 | – | CO[C@H]1CN(c2nccc(Nc3cc4c(C(C)C)ccc(N5CC(CS(C)(=O)=O)C5)c4cn3)n2)C[C@@H](F)[C@H]1O (racemic) [Compound 147, (3S,4R,5R)-3-fluoro-1-(4-((5-isopropyl-8-(3-((methylsulfonyl)methyl)azetidin-1-yl)isoquinolin-3-yl)amino)pyrimidin-2-yl)-5-methoxypiperidin-4-ol and (3R,4S,5S)-3-fluoro-1-(4-((5-isopropyl-8-(3-((methylsulfonyl)methyl)azetidin-1-yl)isoquinolin-3-yl)amino)pyrimidin-2-yl)-5-methoxypiperidin-4-ol] |
| 15.1 to 20 | ≤ 10 | – | CO[C@@H]1[C@H](F)CN(c2nccc(Nc3cc4c(C(C)C)ccc(N5C[C@H](CS(C)(=O)=O)[C@H]5C)c4cn3)n2)C[C@@H]1O (racemic) [Compound 198, (3R,4R,5S)-5-fluoro-1-(4-((5-isopropyl-8-((2R,3S)-2-methyl-3-((methylsulfonyl)methyl)azetidin-1-yl)isoquinolin-3-yl)amino)pyrimidin-2-yl)-4-methoxypiperidin-3-ol and (3S,4S,5R)-5-fluoro-1-(4-((5-isopropyl-8-((2R,3S)-2-methyl-3-((methylsulfonyl)methyl)azetidin-1-yl)isoquinolin-3-yl)amino)pyrimidin-2-yl)-4-methoxypiperidin-3-ol] |
| 15.1 to 20 | ≤ 10 | – | CO[C@H]1CN(c2nccc(Nc3cc4c(C(C)C)ccc(N5C[C@H](CS(C)(=O)=O)[C@H]5C)c4cn3)n2)C[C@@H](F)[C@H]1O (racemic) [Compound 200, (3R,4S,5S)-3-fluoro-1-(4-((5-isopropyl-8-((2R,3S)-2-methyl-3-((methylsulfonyl)methyl)azetidin-1-yl)isoquinolin-3-yl)amino)pyrimidin-2-yl)-5-methoxypiperidin-4-ol and (3S,4R,5R)-3-fluoro-1-(4-((5-isopropyl-8-((2R,3S)-2-methyl-3-((methylsulfonyl)methyl)azetidin-1-yl)isoquinolin-3-yl)amino)pyrimidin-2-yl)-5-methoxypiperidin-4-ol] |
| – | 30.1 to 50 | – | CC(C)c1ccc(N2CC(CS(C)(=O)=O)C2)c2cnc(Nc3ccnc(N4CC[C@H](O)[C@@](C)(F)C4)n3)cc12 (single isomer, unassigned) [Compound 61, (3S,4S)-3-fluoro-1-[4-({8-[3-(methanesulfonylmethyl)azetidin-1-yl]-5-(propan-2-yl)isoquinolin-3-yl}amino)pyrimidin-2-yl]-3-methylpiperidin-4-ol or (3R,4R)-3-fluoro-1-[4-({8-[3-(methanesulfonylmethyl)azetidin-1-yl]-5-(propan-2-yl)isoquinolin-3-yl}amino)pyrimidin-2-yl]-3-methylpiperidin-4-ol] |
| – | ≤ 10 | – | CC(C)c1cnc(N2CC(CS(C)(=O)=O)C2)c2cnc(Nc3ccnc(N4CC[C@@H](O)[C@@](C)(F)C4)n3)cc12 (single isomer, unassigned) [Compound 67] |
| – | 20.1 to 30 | – | CC(C)c1ccc(N2C[C@H](CS(C)(=O)=O)[C@H]2C)c2cnc(Nc3ccnc(N4CC[C@H](O)[C@@](C)(F)C4)n3)cc12 (single isomer, unassigned) [Compound 119, (3S,4S)-3-fluoro-1-[4-({8-[(2R,3S)-3-(methanesulfonylmethyl)-2-methylazetidin-1-yl]-5-(propan-2-yl)isoquinolin-3-yl}amino)pyrimidin-2-yl]-3-methylpiperidin-4-ol or (3R,4R)-3-fluoro-1-[4-({8-[(2R,3S)-3-(methanesulfonylmethyl)-2-methylazetidin-1-yl]-5-(propan-2-yl)isoquinolin-3-yl}amino)pyrimidin-2-yl]-3-methylpiperidin-4-ol] |
| – | – | 10.1 to 20 | CC(C)c1ccc(N2C[C@H](CS(C)(=O)=O)[C@H]2C)c2cnc(Nc3ccnc(N4CC[C@H](O)[C@@](C)(F)C4)n3)cc12 (single isomer, unassigned) [Compound 120, (3R,4R)-3-fluoro-1-[4-({8-[(2R,3S)-3-(methanesulfonylmethyl)-2-methylazetidin-1-yl]-5-(propan-2-yl)isoquinolin-3-yl}amino)pyrimidin-2-yl]-3-methylpiperidin-4-ol or (3S,4S)-3-fluoro-1-[4-({8-[(2R,3S)-3-(methanesulfonylmethyl)-2-methylazetidin-1-yl]-5-(propan-2-yl)isoquinolin-3-yl}amino)pyrimidin-2-yl]-3-methylpiperidin-4-ol] |
| – | 20.1 to 30 | – | CO[C@@H]1CCN(c2nccc(Nc3cc4c(C(C)C)ccc(N5C[C@H](CS(C)(=O)=O)[C@H]5C)c4cn3)n2)C[C@H]1F (single isomer, unassigned) [Compound 278, N-{2-[(3R,4R)-3-fluoro-4-methoxypiperidin-1-yl]pyrimidin-4-yl}-8-[(2R,3S)-3-(methanesulfonylmethyl)-2-methylazetidin-1-yl]-5-(propan-2-yl)isoquinolin-3-amine or N-{2-[(3S,4S)-3-fluoro-4-methoxypiperidin-1-yl]pyrimidin-4-yl}-8-[(2R,3S)-3-(methanesulfonylmethyl)-2-methylazetidin-1-yl]-5-(propan-2-yl)isoquinolin-3-amine] |
| – | – | 20.1 to 30 | CO[C@@H]1CCN(c2nccc(Nc3cc4c(C(C)C)ccc(N5C[C@H](CS(C)(=O)=O)[C@H]5C)c4cn3)n2)C[C@H]1F (single isomer, unassigned) [Compound 279, N-{2-[(3S,4S)-3-fluoro-4-methoxypiperidin-1-yl]pyrimidin-4-yl}-8-[(2R,3S)-3-(methanesulfonylmethyl)-2-methylazetidin-1-yl]-5-(propan-2-yl)isoquinolin-3-amine or N-{2-[(3R,4R)-3-fluoro-4-methoxypiperidin-1-yl]pyrimidin-4-yl}-8-[(2R,3S)-3-(methanesulfonylmethyl)-2-methylazetidin-1-yl]-5-(propan-2-yl)isoquinolin-3-amine] |
| – | ≤ 10 | – | CO[C@@H]1CCN(c2nccc(Nc3cc4c(C(C)C)ccc(N5C[C@H](CS(C)(=O)=O)[C@H]5C)c4cn3)n2)C[C@@H]1F [Compound 122, N-(2-((3S,4R)-3-fluoro-4-methoxypiperidin-1-yl)pyrimidin-4-yl)-5-isopropyl-8-((2R,3S)-2-methyl-3-((methylsulfonyl)methyl)azetidin-1-yl)isoquinolin-3-amine] |
| – | ≤ 10 | – | CO[C@H]1CCN(c2nccc(Nc3cc4c(C(C)C)ccc(N5C[C@H](CS(C)(=O)=O)[C@H]5C)c4cn3)n2)C[C@H]1F [Compound 123, N-(2-((3R,4S)-3-fluoro-4-methoxypiperidin-1-yl)pyrimidin-4-yl)-5-isopropyl-8-((2R,3S)-2-methyl-3-((methylsulfonyl)methyl)azetidin-1-yl)isoquinolin-3-amine] |
| ≤ 15 | – | – | CO[C@H]1CCN(c2nccc(Nc3cc4c(C(C)(C)N)ccc(N5C[C@H](CS(C)(=O)=O)[C@H]5C)c4cn3)n2)C[C@H]1F [Compound 312, 5-(2-aminopropan-2-yl)-N-(2-((3R,4S)-3-fluoro-4-methoxypiperidin-1-yl)pyrimidin-4-yl)-8-((2R,3S)-2-methyl-3-((methylsulfonyl)methyl)azetidin-1-yl)isoquinolin-3-amine] |
